Tests used:
Type in all cases: biochemical
ces1d [1] = target: T1, ces1d (Rattus norvegicus, UniProt P16303); experiment: p-nitrophenylacetate hydrolysis, absorbance at […] nm; details: read-out: % inhibition at 10 nM
T1 sequence (P16303 19-565): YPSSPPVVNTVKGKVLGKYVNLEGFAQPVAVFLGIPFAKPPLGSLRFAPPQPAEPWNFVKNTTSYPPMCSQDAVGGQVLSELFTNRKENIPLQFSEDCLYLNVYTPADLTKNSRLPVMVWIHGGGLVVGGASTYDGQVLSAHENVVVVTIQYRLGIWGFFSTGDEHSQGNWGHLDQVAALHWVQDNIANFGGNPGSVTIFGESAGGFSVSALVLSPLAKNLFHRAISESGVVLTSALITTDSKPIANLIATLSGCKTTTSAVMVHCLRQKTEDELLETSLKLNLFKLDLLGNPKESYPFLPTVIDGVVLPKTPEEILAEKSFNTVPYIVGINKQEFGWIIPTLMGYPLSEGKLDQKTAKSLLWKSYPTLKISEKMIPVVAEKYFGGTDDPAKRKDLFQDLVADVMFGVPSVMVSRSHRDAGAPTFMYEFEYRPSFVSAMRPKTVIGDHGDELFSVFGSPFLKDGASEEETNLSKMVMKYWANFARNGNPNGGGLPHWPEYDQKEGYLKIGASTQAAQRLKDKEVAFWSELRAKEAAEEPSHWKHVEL

ces2e [2] = target: T2, ces2e (Mus musculus, UniProt Q8BK48); experiment: as above; details: read-out: % inhibition at 1 nM
T2 sequence (Q8BK48 27-559): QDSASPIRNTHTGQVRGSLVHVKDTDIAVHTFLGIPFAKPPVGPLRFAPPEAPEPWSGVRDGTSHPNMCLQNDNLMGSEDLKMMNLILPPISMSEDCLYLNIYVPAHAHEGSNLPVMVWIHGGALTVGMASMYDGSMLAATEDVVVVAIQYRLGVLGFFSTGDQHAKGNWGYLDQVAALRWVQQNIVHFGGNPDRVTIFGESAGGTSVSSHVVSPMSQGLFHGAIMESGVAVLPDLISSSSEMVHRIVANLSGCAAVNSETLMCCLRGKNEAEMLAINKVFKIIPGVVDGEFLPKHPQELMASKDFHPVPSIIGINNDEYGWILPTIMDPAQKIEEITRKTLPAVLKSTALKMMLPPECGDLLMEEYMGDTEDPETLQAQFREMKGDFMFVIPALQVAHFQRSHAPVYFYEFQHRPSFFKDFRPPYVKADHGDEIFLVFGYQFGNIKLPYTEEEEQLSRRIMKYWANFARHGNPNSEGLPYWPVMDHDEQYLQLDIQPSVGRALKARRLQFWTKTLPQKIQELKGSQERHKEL

ces1e [3] = target: T3, ces1e (Rattus norvegicus, UniProt Q63108); experiment: as above; details: read-out: % inhibition at 10 nM
T3 sequence (Q63108 19-561): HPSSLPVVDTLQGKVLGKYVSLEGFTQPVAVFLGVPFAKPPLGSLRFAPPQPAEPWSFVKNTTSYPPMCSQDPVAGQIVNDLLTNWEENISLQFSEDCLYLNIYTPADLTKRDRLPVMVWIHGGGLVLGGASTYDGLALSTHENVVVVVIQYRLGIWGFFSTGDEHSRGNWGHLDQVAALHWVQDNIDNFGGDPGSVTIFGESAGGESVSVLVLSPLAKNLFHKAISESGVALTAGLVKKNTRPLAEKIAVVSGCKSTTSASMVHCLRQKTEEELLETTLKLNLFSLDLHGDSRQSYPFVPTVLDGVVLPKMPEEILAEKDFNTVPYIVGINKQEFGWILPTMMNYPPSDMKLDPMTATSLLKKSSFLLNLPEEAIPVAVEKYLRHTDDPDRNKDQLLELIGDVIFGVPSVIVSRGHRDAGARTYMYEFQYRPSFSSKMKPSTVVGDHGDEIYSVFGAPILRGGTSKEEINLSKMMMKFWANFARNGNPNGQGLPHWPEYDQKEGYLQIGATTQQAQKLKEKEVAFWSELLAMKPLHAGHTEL

ces1d [4] = target: T4, ces1d (Mus musculus, UniProt Q8VCT4); experiment: as above; details: read-out: % inhibition at 1 nM
T4 sequence (Q8VCT4 19-565): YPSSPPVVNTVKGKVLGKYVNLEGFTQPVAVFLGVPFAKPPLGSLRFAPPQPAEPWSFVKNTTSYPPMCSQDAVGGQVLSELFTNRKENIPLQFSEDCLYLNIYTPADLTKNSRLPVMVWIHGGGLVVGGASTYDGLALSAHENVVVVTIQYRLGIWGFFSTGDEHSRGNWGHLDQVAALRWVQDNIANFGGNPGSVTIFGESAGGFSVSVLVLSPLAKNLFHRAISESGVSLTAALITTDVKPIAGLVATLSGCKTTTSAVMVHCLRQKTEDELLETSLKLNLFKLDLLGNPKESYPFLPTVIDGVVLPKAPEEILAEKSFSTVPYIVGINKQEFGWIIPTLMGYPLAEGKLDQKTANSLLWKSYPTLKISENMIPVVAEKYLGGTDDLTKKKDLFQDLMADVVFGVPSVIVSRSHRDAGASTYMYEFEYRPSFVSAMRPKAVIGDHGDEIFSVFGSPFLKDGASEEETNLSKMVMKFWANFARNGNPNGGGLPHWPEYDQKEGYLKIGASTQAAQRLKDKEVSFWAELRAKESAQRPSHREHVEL

CES1 [5] = target: T5, CES1 (Homo sapiens, UniProt P23141); experiment: as above; details: read-out: % inhibition at 100 nM
T5 sequence (P23141 18-567): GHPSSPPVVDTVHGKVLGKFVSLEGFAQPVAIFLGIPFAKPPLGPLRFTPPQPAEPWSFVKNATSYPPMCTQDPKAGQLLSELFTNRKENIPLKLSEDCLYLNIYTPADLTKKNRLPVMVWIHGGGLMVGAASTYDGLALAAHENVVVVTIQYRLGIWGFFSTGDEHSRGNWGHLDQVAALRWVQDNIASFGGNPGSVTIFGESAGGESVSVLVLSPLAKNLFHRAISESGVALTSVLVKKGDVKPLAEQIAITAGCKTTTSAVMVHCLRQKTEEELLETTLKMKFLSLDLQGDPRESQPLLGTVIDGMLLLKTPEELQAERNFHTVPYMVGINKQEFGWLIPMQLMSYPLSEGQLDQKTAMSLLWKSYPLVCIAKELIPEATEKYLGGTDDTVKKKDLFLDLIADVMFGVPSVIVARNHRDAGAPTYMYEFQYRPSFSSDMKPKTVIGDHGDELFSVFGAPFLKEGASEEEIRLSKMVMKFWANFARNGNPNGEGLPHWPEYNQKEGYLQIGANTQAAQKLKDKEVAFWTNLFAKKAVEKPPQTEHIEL

ces2c [6] = target: T6, ces2c (Mus musculus, UniProt Q91WG0); experiment: as above; details: read-out: % inhibition at 1 nM
T6 sequence (Q91WG0 27-561): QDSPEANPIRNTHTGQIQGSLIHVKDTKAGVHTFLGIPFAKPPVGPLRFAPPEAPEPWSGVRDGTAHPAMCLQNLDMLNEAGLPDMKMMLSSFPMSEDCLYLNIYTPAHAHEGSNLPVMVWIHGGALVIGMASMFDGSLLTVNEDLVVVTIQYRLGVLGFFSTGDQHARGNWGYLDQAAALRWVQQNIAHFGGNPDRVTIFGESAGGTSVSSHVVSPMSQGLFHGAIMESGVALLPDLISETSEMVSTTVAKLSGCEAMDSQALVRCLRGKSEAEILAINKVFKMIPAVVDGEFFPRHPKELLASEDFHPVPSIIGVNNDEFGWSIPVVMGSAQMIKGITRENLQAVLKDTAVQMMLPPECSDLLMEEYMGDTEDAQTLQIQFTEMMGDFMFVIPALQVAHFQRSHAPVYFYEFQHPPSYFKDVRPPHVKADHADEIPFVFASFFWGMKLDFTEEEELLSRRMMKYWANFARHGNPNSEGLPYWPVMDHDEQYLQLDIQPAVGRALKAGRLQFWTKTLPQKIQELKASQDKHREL

ces2c [7] = target: T6, ces2c; experiment: hydrolysis, absorbance at […] nm; details: 293T lysate, potassium phosphate pH 7.4
ces1d [8] = target: T4, ces1d; experiment: hydrolysis, absorbance at […] nm; details: 293T lysate, potassium phosphate pH 7.4
ces1e [9] = target: T3, ces1e; experiment: hydrolysis, absorbance at […] nm; details: 293T lysate, potassium phosphate pH 7.4
ces1d [10] = target: T1, ces1d; experiment: hydrolysis, absorbance at […] nm; details: 293T lysate, potassium phosphate pH 7.4
ces2e [11] = target: T2, ces2e; experiment: hydrolysis, absorbance at […] nm; details: 293T lysate, potassium phosphate pH 7.4
CES2 = target: T7, CES2 (Homo sapiens, UniProt O00748); experiment: hydrolysis, absorbance at […] nm; details: 293T lysate, potassium phosphate pH 7.4
T7 sequence (O00748 27-559): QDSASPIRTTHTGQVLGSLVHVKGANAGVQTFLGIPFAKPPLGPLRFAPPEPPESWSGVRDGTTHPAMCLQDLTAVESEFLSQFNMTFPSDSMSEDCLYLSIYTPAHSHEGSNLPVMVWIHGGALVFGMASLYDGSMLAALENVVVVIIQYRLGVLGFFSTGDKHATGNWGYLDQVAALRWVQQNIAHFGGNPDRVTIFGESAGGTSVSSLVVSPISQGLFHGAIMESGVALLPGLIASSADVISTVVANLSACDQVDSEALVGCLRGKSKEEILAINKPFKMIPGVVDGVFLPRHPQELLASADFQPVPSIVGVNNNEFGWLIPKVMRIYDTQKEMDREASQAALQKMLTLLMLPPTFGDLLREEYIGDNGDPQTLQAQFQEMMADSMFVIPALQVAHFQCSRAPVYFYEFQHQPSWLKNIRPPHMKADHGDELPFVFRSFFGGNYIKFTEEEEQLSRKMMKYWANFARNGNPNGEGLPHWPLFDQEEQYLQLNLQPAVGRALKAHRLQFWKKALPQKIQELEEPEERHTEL

CES1 [12] = target: T5, CES1; experiment: hydrolysis, absorbance at […] nm; details: 293T lysate, potassium phosphate pH 7.4

SMILES: CCCCCCCCCCC[C@@H](C[C@@H]1OC(=O)[C@H]1CCCCCC)OC(=O)[C@H](CC(C)C)NC=O [orlistat]
- inhibition at 0.01 µM (ces1d [1]): 20%
- inhibition at 0.001 µM (ces2e [2]): 55%
- inhibition at 0.01 µM (ces1e [3]): 20%
- inhibition at 0.001 µM (ces1d [4]): 12%
- inhibition at 0.1 µM (CES1 [5]): ~30%
- inhibition at 0.001 µM (ces2c [6]): 90%

SMILES: CC(=O)Oc1ccc([N+](=O)[O-])cc1 [p-nitrophenylacetate]
- hydrolysis, absorbance at 400 nm (ces2c [7]): Inhibition of p-nitrophenylacetate hydrolysis of recombinant carboxylesterases from human (A), mouse (B) or rat
- hydrolysis, absorbance at 400 nm (ces1d [8]): Inhibition of p-nitrophenylacetate hydrolysis of recombinant carboxylesterases from human (A), mouse (B) or rat
- hydrolysis, absorbance at 400 nm (ces1e [9]): Inhibition of p-nitrophenylacetate hydrolysis of recombinant carboxylesterases from human (A), mouse (B) or rat
- hydrolysis, absorbance at 400 nm (ces1d [10]): Inhibition of p-nitrophenylacetate hydrolysis of recombinant carboxylesterases from human (A), mouse (B) or rat
- hydrolysis, absorbance at 400 nm (ces2e [11]): Inhibition of p-nitrophenylacetate hydrolysis of recombinant carboxylesterases from human (A), mouse (B) or rat
- hydrolysis, absorbance at 400 nm (CES2): Inhibition of p-nitrophenylacetate hydrolysis of recombinant carboxylesterases from human (A), mouse (B) or rat
- hydrolysis, absorbance at 400 nm (CES1 [12]): Inhibition of p-nitrophenylacetate hydrolysis of recombinant carboxylesterases from human (A), mouse (B) or rat

— publication PMC4102434 (Biochemical pharmacology, 2012)
